Laboratory results as given in patent publication US20220106296A1, “CYANOTRIAZOLE COMPOUNDS AND USES THEREOF” (Novartis AG, priority 2018, published 2022).

Test system: T. b. brucei Lister427 bloodstream form parasites
Test: T. b. brucei growth inhibition assay (CellTiter-Glo, 48 hours)
Type: cell-based
Settings: Trypanosoma brucei
Excerpt: Bloodstream form of T. b. brucei Lister427 strain was obtained from the Genomics Institute of the Novartis Research Foundation. This strain was used for carrying out growth inhibition and kill kinetics assays. T. b. gambiense STIB930 and T. b. rhodesiense STIB900 were obtained from Swiss TPH, were used for carrying out the growth inhibition assays.
Bloodstream form T. b. brucei Lister 427 parasites were continuously passaged in HMI-9 medium formulated from IMDM medium (Invitrogen), 10% heat-inactivated fetal bovine serum (FBS), 10% Serum Plus medium supplement (SAFC Biosciences), 1 mM hypoxanthine (Sigma-Aldrich), 50 μM bathocuproine disulfonic acid (Sigma-Aldrich), 1.5 mM cysteine (Sigma-Aldrich), 1 mM pyruvic acid (Sigma-Aldrich), 39 μg/mL thymidine (Sigma-Aldrich), and 14 μL/L beta-mercapthoethanol (Sigma-Aldrich); all concentrations of added components refer to that in complete HMI-9 medium. The parasites were cultured in 10 mL of HMI-9 medium in T75 CELL-STAR tissue culture flasks at 37° C./5% CO2.
To determine compound growth inhibitory potency on T. b. brucei Lister427 bloodstream form parasites, 200 nL of 10-point, 3 fold serially diluted compounds in DMSO were transferred to the wells of white, solid bottom 384-well plates (Greiner Bio-One) by either Echo 555 acoustic liquid handling system or Mosquito. Then, 1×10^4 of T. b. brucei parasites in 40 μL of HMI-9 medium were added to each well, and the plates were incubated for 48 hours at 37° C. in 5% CO2 incubators. Parasite numbers in individual plate wells were determined through quantification of intracellular ATP amount. The CellTiter-Glo luminescent cell viability reagent (Promega) was added to plate wells, and ATP-dependent luminescence signal was measured on Tecan M1000 plate Reader after 30 min incubation. Luminescence values in wells with compounds were divided by the average luminescence value of the plate DMSO controls, and used for calculation of compound IC50 values.

| SMILES | IC50 [µM] |
| --- | --- |
| N#Cc1ncn(CC(=O)N2Cc3ccc(-c4cc(F)ccc4C(F)(F)F)cc3C2)n1 [Example 28, 1-(2-(5-(5-fluoro-2-(trifluoromethyl)phenyl)isoindolin-2-yl)-2-oxoethyl)-1H-1,2,4-triazole-3-carbonitrile] | < 0.1 |
| N#Cc1ncn(CC(=O)N2Cc3ccc(-c4cccnc4Cl)cc3C2)n1 [Example 47, 1-(2-(5-(2-chloropyridin-3-yl)isoindolin-2-yl)-2-oxoethyl)-1H-1,2,4-triazole-3-carbonitrile] | 0.1 to 1 |
| N#Cc1ncn(CC(=O)N2Cc3ccc(-c4ccncc4Cl)cc3C2)n1 [Example 49, 1-(2-(5-(3-chloropyridin-4-yl)isoindolin-2-yl)-2-oxoethyl)-1H-1,2,4-triazole-3-carbonitrile] | 0.1 to 1 |
| COc1ccc(-c2ccc3c(c2)CN(C(=O)Cn2cnc(C#N)n2)C3)c(OC)c1 [Example 53, 1-(2-(5-(2,4-dimethoxyphenyl)isoindolin-2-yl)-2-oxoethyl)-1H-1,2,4-triazole-3-carbonitrile] | ≥ 1 |
| N#Cc1cccc(-c2ccc3c(c2)CN(C(=O)Cn2cnc(C#N)n2)C3)c1 [Example 54, 1-(2-(5-(3-cyanophenyl)isoindolin-2-yl)-2-oxoethyl)-1H-1,2,4-triazole-3-carbonitrile] | ≥ 1 |
| N#Cc1ncn(CC(=O)N2Cc3ccc(-c4ccc(F)cc4F)cc3C2)n1 [Example 55, 1-(2-(5-(2,4-difluorophenyl)isoindolin-2-yl)-2-oxoethyl)-1H-1,2,4-triazole-3-carbonitrile] | ≥ 1 |
| N#Cc1ncn(CC(=O)N2Cc3ccc(-c4ccc(F)nc4)cc3C2)n1 [Example 56, 1-(2-(5-(6-fluoropyridin-3-yl)isoindolin-2-yl)-2-oxoethyl)-1H-1,2,4-triazole-3-carbonitrile] | ≥ 1 |
| COc1ccc(F)cc1-c1ccc2c(c1)CN(C(=O)Cn1cnc(C#N)n1)C2 [Example 57, 1-(2-(5-(5-fluoro-2-methoxyphenyl)isoindolin-2-yl)-2-oxoethyl)-1H-1,2,4-triazole-3-carbonitrile] | ≥ 1 |
| N#Cc1ncn(CC(=O)N2Cc3ccc(-c4ccc(Cl)cc4F)cc3C2)n1 [Example 58, 1-(2-(5-(4-chloro-2-fluorophenyl)isoindolin-2-yl)-2-oxoethyl)-1H-1,2,4-triazole-3-carbonitrile] | ≥ 1 |
| COc1ccc(OC)c(-c2ccc3c(c2)CN(C(=O)Cn2cnc(C#N)n2)C3)c1 [Example 59, 1-(2-(5-(2,5-dimethoxyphenyl)isoindolin-2-yl)-2-oxoethyl)-1H-1,2,4-triazole-3-carbonitrile] | ≥ 1 |
| N#Cc1ncn(CC(=O)N2Cc3ccc(-c4ccncc4F)cc3C2)n1 [Example 60, 1-(2-(5-(3-fluoropyridin-4-yl)isoindolin-2-yl)-2-oxoethyl)-1H-1,2,4-triazole-3-carbonitrile] | ≥ 1 |
| COc1ccc(-c2ccc3c(c2)CN(C(=O)Cn2cnc(C#N)n2)C3)cc1 [Example 61, 1-(2-(5-(4-methoxyphenyl)isoindolin-2-yl)-2-oxoethyl)-1H-1,2,4-triazole-3-carbonitrile] | ≥ 1 |
| COc1ccc(OC(F)(F)F)cc1-c1ccc2c(c1)CN(C(=O)Cn1cnc(C#N)n1)C2 [Example 62, 1-(2-(5-(2-methoxy-5-(trifluoromethoxy)phenyl)isoindolin-2-yl)-2-oxoethyl)-1H-1,2,4-triazole-3-carbonitrile] | ≥ 1 |
| N#Cc1ncn(CC(=O)N2Cc3ccc(-c4ccnc(F)c4)cc3C2)n1 [Example 63, 1-(2-(5-(2-fluoropyridin-4-yl)isoindolin-2-yl)-2-oxoethyl)-1H-1,2,4-triazole-3-carbonitrile] | ≥ 1 |
| C#Cc1ccc(-c2ccc3c(c2)CN(C(=O)Cn2cnc(C#N)n2)C3)cc1 [Example 64, 1-(2-(5-(4-ethynylphenyl)isoindolin-2-yl)-2-oxoethyl)-1H-1,2,4-triazole-3-carbonitrile] | ≥ 1 |
| N#Cc1ncn(CC(=O)N2Cc3ccc(-c4ccccc4F)cc3C2)n1 [Example 65, 1-(2-(5-(2-fluorophenyl)isoindolin-2-yl)-2-oxoethyl)-1H-1,2,4-triazole-3-carbonitrile] | ≥ 1 |
| N#Cc1ncn(CC(=O)N2Cc3ccc(-c4ccncc4)cc3C2)n1 [Example 66, 1-(2-oxo-2-(5-(pyridin-4-yl)isoindolin-2-yl)ethyl)-1H-1,2,4-triazole-3-carbonitrile] | ≥ 1 |

| SMILES | IC50 [µM] |
| --- | --- |
| N#Cc1ncn(CC(=O)N2Cc3ccc(-c4ccc(Br)cc4)cc3C2)n1 [Example 67, 1-(2-(5-(4-bromophenyl)isoindolin-2-yl)-2-oxoethyl)-1H-1,2,4-triazole-3-carbonitrile] | ≥ 1 |
| N#Cc1ncn(CC(=O)N2Cc3ccc(-c4ccc(F)c(Cl)c4)cc3C2)n1 [Example 68, 1-(2-(5-(3-chloro-4-fluorophenyl)isoindolin-2-yl)-2-oxoethyl)-1H-1,2,4-triazole-3-carbonitrile] | ≥ 1 |
| N#Cc1ncn(CC(=O)N2Cc3ccc(-c4ccccc4-c4ccccc4)cc3C2)n1 [Example 69, 1-(2-(5-([1,1′-biphenyl]-2-yl)isoindolin-2-yl)-2-oxoethyl)-1H-1,2,4-triazole-3-carbonitrile] | ≥ 1 |
| N#Cc1ncn(CC(=O)N2Cc3ccc(-c4ccc(Cl)c(F)c4)cc3C2)n1 [Example 70, 1-(2-(5-(4-chloro-3-fluorophenyl)isoindolin-2-yl)-2-oxoethyl)-1H-1,2,4-triazole-3-carbonitrile] | ≥ 1 |
| N#Cc1ncn(CC(=O)N2Cc3ccc(-c4ccc(Cl)cc4)cc3C2)n1 [Example 71, 1-(2-(5-(4-chlorophenyl)isoindolin-2-yl)-2-oxoethyl)-1H-1,2,4-triazole-3-carbonitrile] | ≥ 1 |
| N#Cc1ncn(CC(=O)N2Cc3ccc(-c4ccc(F)c(F)c4)cc3C2)n1 [Example 72, 1-(2-(5-(3,4-difluorophenyl)isoindolin-2-yl)-2-oxoethyl)-1H-1,2,4-triazole-3-carbonitrile] | ≥ 1 |
| N#Cc1ncn(CC(=O)N2Cc3ccc(-c4cccnc4F)cc3C2)n1 [Example 73, 1-(2-(5-(2-fluoropyridin-3-yl)isoindolin-2-yl)-2-oxoethyl)-1H-1,2,4-triazole-3-carbonitrile] | ≥ 1 |
| N#Cc1ncn(CC(=O)N2Cc3ccc(-c4cc(F)cc(F)c4)cc3C2)n1 [Example 74, 1-(2-(5-(3,5-difluorophenyl)isoindolin-2-yl)-2-oxoethyl)-1H-1,2,4-triazole-3-carbonitrile] | ≥ 1 |
| COc1ccccc1-c1ccc2c(c1)CN(C(=O)Cn1cnc(C#N)n1)C2 [Example 75, 1-(2-(5-(2-methoxyphenyl)isoindolin-2-yl)-2-oxoethyl)-1H-1,2,4-triazole-3-carbonitrile] | ≥ 1 |
| N#Cc1ncn(CC(=O)N2Cc3ccc(-c4ccc(C(F)(F)F)cc4)cc3C2)n1 [Example 76, 1-(2-oxo-2-(5-(4-(trifluoromethyl)phenyl)isoindolin-2-yl)ethyl)-1H-1,2,4-triazole-3-carbonitrile] | ≥ 1 |
| COc1cccc(-c2ccc3c(c2)CN(C(=O)Cn2cnc(C#N)n2)C3)c1 [Example 77, 1-(2-(5-(3-methoxyphenyl)isoindolin-2-yl)-2-oxoethyl)-1H-1,2,4-triazole-3-carbonitrile] | ≥ 1 |
| Cc1cc(-c2ccc3c(c2)CN(C(=O)Cn2cnc(C#N)n2)C3)ccc1C(F)(F)F [Example 78, 1-(2-(5-(3-methyl-4-(trifluoromethyl)phenyl)isoindolin-2-yl)-2-oxoethyl)-1H-1,2,4-triazole-3-carbonitrile] | ≥ 1 |
| N#Cc1ncn(CC(=O)N2Cc3ccc(-c4ccccc4)cc3C2)n1 [Example 79, 1-(2-oxo-2-(5-phenylisoindolin-2-yl)ethyl)-1H-1,2,4-triazole-3-carbonitrile] | ≥ 1 |
| N#Cc1ncn(CC(=O)N2Cc3ccc(-c4cccc(Cl)c4)cc3C2)n1 [Example 80, 1-(2-(5-(3-chlorophenyl)isoindolin-2-yl)-2-oxoethyl)-1H-1,2,4-triazole-3-carbonitrile] | ≥ 1 |
| N#Cc1ncn(CC(=O)N2Cc3ccc(-c4cccc(F)c4)cc3C2)n1 [Example 81, 1-(2-(5-(3-fluorophenyl)isoindolin-2-yl)-2-oxoethyl)-1H-1,2,4-triazole-3-carbonitrile] | ≥ 1 |
| N#Cc1ncn(CC(=O)N2Cc3ccc(-c4ccc(F)cc4)cc3C2)n1 [Example 82, 1-(2-(5-(4-fluorophenyl)isoindolin-2-yl)-2-oxoethyl)-1H-1,2,4-triazole-3-carbonitrile] | ≥ 1 |
| N#Cc1ncn(CC(=O)N2Cc3ccc(-c4ccc(OC(F)(F)F)cc4)cc3C2)n1 [Example 83, 1-(2-oxo-2-(5-(4-(trifluoromethoxy)phenyl)isoindolin-2-yl)ethyl)-1H-1,2,4-triazole-3-carbonitrile] | ≥ 1 |
